test: log P determination by HPLC on reversed-phase column (C 18), EEC directive 79/831 Annex V.A8; assay type: physicochemical; details: pH 2.3 (marked a), 0.1% aqueous phosphoric acid/acetonitrile, 43° C.
Method: The log P values given in the tables and Preparation Examples above are determined in accordance with EEC directive 79/831 Annex V.A8 by HPLC (High Performance Liquid Chromatography) using a reversed-phase column (C 18). Temperature: 43° C. In the acidic range, the determination is carried out at pH 2.3 using the mobile phases 0.1% aqueous phosphoric acid and acetonitrile; linear gradient from 10% acetonitrile to 90% acetonitrile (marked^a) in the table). In the neutral range, the determination is carried out at pH 7.5 using the mobile phases 0.01-molar aqueous phosphate buffer solution and acetonitrile; linear gradient from 10% acetonitrile to 90% acetonitrile (marked^b) in the table). Calibration is carried out using unbranched alkan-2-ones (having 3 to 16 carbon atoms) with known log P values (determination of the log P values by the retention times using linear interpolation between two successive alkanones).

| log P | SMILES |
| --- | --- |
| 6.28^a) | CC1CCC(OC(=O)[C@H]2CC(c3c(F)cccc3F)=NC2c2ccc(-c3ccc(OC(F)(F)F)cc3)cc2)CC1 (stereo partly drawn) [Example 49] |

same assay, conditions: reversed-phase HPLC column (C 18), pH 2.3, pH 2.3 (marked a), 0.1% aqueous phosphoric acid/acetonitrile, 43° C.

| SMILES | chromatographic logP |
| --- | --- |
| COC(=O)[C@H]1CC(c2ccccc2Cl)=N[C@H]1c1ccc(-c2ccc(OC(F)(F)F)cc2)cc1 (racemic) [Example 5, methyl ((2S, 3R), (2R, 3S))-5-(2-chlorophenyl)-2-[4′-(trifluoromethoxy)-1,1′-biphenyl-4-yl]-3,4-dihydro-2H-pyrrole-3-carboxylate] | 5.05 |
| O=C(OC1CCCC1)[C@H]1CC(c2c(F)cccc2F)=NC1c1ccc(-c2ccc(OC(F)(F)F)cc2)cc1 (stereo partly drawn) [Example 18] | 5.47 |
| O=C(OC1CCCCC1)[C@H]1CC(c2c(F)cccc2F)=NC1c1ccc(-c2ccc(OC(F)(F)F)cc2)cc1 (stereo partly drawn) [Example 19] | 5.85 |
| O=C(OCc1ccoc1)[C@H]1CC(c2c(F)cccc2F)=NC1c1ccc(-c2ccc(OC(F)(F)F)cc2)cc1 (stereo partly drawn) [Example 28] | 4.87 |
| O=C(OC/C=C/c1ccccc1)[C@H]1CC(c2c(F)cccc2F)=NC1c1ccc(-c2ccc(OC(F)(F)F)cc2)cc1 (stereo partly drawn) [Example 31] | 5.55 |
| O=C(OCc1ccccc1)[C@H]1CC(c2c(F)cccc2F)=NC1c1ccc(-c2ccc(OC(F)(F)F)cc2)cc1 (stereo partly drawn) [Example 34] | 5.31 |
| O=C(OCc1ccccc1Cl)[C@H]1CC(c2c(F)cccc2F)=NC1c1ccc(-c2ccc(OC(F)(F)F)cc2)cc1 (stereo partly drawn) [Example 35] | 5.65 |
| O=C(OCc1cccc(Cl)c1)[C@H]1CC(c2c(F)cccc2F)=NC1c1ccc(-c2ccc(OC(F)(F)F)cc2)cc1 (stereo partly drawn) [Example 36] | 5.58 |
| CC(OC(=O)[C@H]1CC(c2c(F)cccc2F)=NC1c1ccc(-c2ccc(OC(F)(F)F)cc2)cc1)c1ccccc1 (stereo partly drawn) [Example 38] | 5.54 |
| O=C(OCC1CCCCC1)[C@H]1CC(c2c(F)cccc2F)=NC1c1ccc(-c2ccc(OC(F)(F)F)cc2)cc1 (stereo partly drawn) [Example 41] | 6.28 |
| O=C(OCCCN1CCCC1=O)[C@H]1CC(c2c(F)cccc2F)=NC1c1ccc(-c2ccc(OC(F)(F)F)cc2)cc1 (stereo partly drawn) [Example 45] | 3.72 |
| CC(C)N(C(=O)COC(=O)[C@H]1CC(c2c(F)cccc2F)=NC1c1ccc(-c2ccc(OC(F)(F)F)cc2)cc1)c1ccc(F)cc1 (stereo partly drawn) [Example 46] | 4.98 |
| O=C(OCc1ccc(Cl)nc1)[C@H]1CC(c2c(F)cccc2F)=NC1c1ccc(-c2ccc(OC(F)(F)F)cc2)cc1 (stereo partly drawn) [Example 47] | 4.82 |
| CC1CCC(OC(=O)[C@H]2CC(c3c(F)cccc3F)=NC2c2ccc(-c3ccc(OC(F)(F)F)cc3)cc2)CC1 (stereo partly drawn) [Example 48] | 6.22 |
| CC(OC(=O)[C@H]1CC(c2c(F)cccc2F)=NC1c1ccc(-c2ccc(OC(F)(F)F)cc2)cc1)C1CCCCC1 (stereo partly drawn) [Example 50] | 6.54 |
| O=C(OC1CCCc2ccccc21)[C@H]1CC(c2c(F)cccc2F)=NC1c1ccc(-c2ccc(OC(F)(F)F)cc2)cc1 (stereo partly drawn) [Example 51] | 5.97 |
| O=C(OC1CCc2ccccc21)[C@H]1CC(c2c(F)cccc2F)=NC1c1ccc(-c2ccc(OC(F)(F)F)cc2)cc1 (stereo partly drawn) [Example 52] | 5.71 |
| O=C(OCc1ccccn1)[C@H]1CC(c2c(F)cccc2F)=NC1c1ccc(-c2ccc(OC(F)(F)F)cc2)cc1 (stereo partly drawn) [Example 53] | 4.13 |
| O=C(OCc1cccnc1)[C@H]1CC(c2c(F)cccc2F)=NC1c1ccc(-c2ccc(OC(F)(F)F)cc2)cc1 (stereo partly drawn) [Example 54] | 3.59 |
| CCCCCNC(=O)[C@H]1CC(c2c(F)cccc2F)=NC1c1ccc(-c2ccc(OC(F)(F)F)cc2)cc1 (stereo partly drawn) [Example 62] | 4.37 |
| CCCCCCNC(=O)[C@H]1CC(c2c(F)cccc2F)=NC1c1ccc(-c2ccc(OC(F)(F)F)cc2)cc1 (stereo partly drawn) [Example 63] | 4.67 |
| CC(C)NC(=O)[C@H]1CC(c2c(F)cccc2F)=NC1c1ccc(-c2ccc(OC(F)(F)F)cc2)cc1 (stereo partly drawn) [Example 64] | 3.74 |
| CC(C)(C)NC(=O)[C@H]1CC(c2c(F)cccc2F)=NC1c1ccc(-c2ccc(OC(F)(F)F)cc2)cc1 (stereo partly drawn) [Example 65] | 4.23 |
| O=C(NC1CCCCC1)[C@H]1CC(c2c(F)cccc2F)=NC1c1ccc(-c2ccc(OC(F)(F)F)cc2)cc1 (stereo partly drawn) [Example 66] | 4.37 |

Further lines, results first:

| chromatographic logP | SMILES |
| --- | --- |
| 4.73 | CCOC(=O)[C@H]1CC(c2c(F)cccc2F)=NC1c1ccc(-c2ccc(OC(F)(F)F)cc2)cc1 (stereo partly drawn) [Example 10] |
| 3.35 | O=C(O)[C@H]1CC(c2c(F)cccc2F)=NC1c1ccc(-c2ccc(OC(F)(F)F)cc2)cc1 (stereo partly drawn) [Example 11] |
| 5.05 | CC(C)OC(=O)[C@H]1CC(c2c(F)cccc2F)=NC1c1ccc(-c2ccc(OC(F)(F)F)cc2)cc1 (stereo partly drawn) [Example 12] |
| 5.41 | CCCCOC(=O)[C@H]1CC(c2c(F)cccc2F)=NC1c1ccc(-c2ccc(OC(F)(F)F)cc2)cc1 (stereo partly drawn) [Example 14] |
| 6.11 | CCCCCCOC(=O)[C@H]1CC(c2c(F)cccc2F)=NC1c1ccc(-c2ccc(OC(F)(F)F)cc2)cc1 (stereo partly drawn) [Example 15] |
| 5.4 | CCC(C)OC(=O)[C@H]1CC(c2c(F)cccc2F)=NC1c1ccc(-c2ccc(OC(F)(F)F)cc2)cc1 (stereo partly drawn) [Example 16] |
| 5.38 | CC(C)COC(=O)[C@H]1CC(c2c(F)cccc2F)=NC1c1ccc(-c2ccc(OC(F)(F)F)cc2)cc1 (stereo partly drawn) [Example 17] |
| 5.84 | CCCCCOC(=O)[C@H]1CC(c2c(F)cccc2F)=NC1c1ccc(-c2ccc(OC(F)(F)F)cc2)cc1 (stereo partly drawn) [Example 20] |
| 5.78 | CC(C)(C)COC(=O)[C@H]1CC(c2c(F)cccc2F)=NC1c1ccc(-c2ccc(OC(F)(F)F)cc2)cc1 (stereo partly drawn) [Example 21] |
| 5.71 | CC(C)C(C)OC(=O)[C@H]1CC(c2c(F)cccc2F)=NC1c1ccc(-c2ccc(OC(F)(F)F)cc2)cc1 (stereo partly drawn) [Example 22] |
| 5.78 | CCC(CC)OC(=O)[C@H]1CC(c2c(F)cccc2F)=NC1c1ccc(-c2ccc(OC(F)(F)F)cc2)cc1 (stereo partly drawn) [Example 23] |
| 4.37 | COCCOC(=O)[C@H]1CC(c2c(F)cccc2F)=NC1c1ccc(-c2ccc(OC(F)(F)F)cc2)cc1 (stereo partly drawn) [Example 24] |
| 4.08 | N#CCCOC(=O)[C@H]1CC(c2c(F)cccc2F)=NC1c1ccc(-c2ccc(OC(F)(F)F)cc2)cc1 (stereo partly drawn) [Example 25] |
| 5.48 | C=CCCCOC(=O)[C@H]1CC(c2c(F)cccc2F)=NC1c1ccc(-c2ccc(OC(F)(F)F)cc2)cc1 (stereo partly drawn) [Example 26] |
| 5.48 | C=C(C)CCOC(=O)[C@H]1CC(c2c(F)cccc2F)=NC1c1ccc(-c2ccc(OC(F)(F)F)cc2)cc1 (stereo partly drawn) [Example 27] |
| 4.23 | N#CCOC(=O)[C@H]1CC(c2c(F)cccc2F)=NC1c1ccc(-c2ccc(OC(F)(F)F)cc2)cc1 (stereo partly drawn) [Example 29] |
| 4.18 | N#CCCCOC(=O)[C@H]1CC(c2c(F)cccc2F)=NC1c1ccc(-c2ccc(OC(F)(F)F)cc2)cc1 (stereo partly drawn) [Example 30] |

| chromatographic logP | SMILES |
| --- | --- |
| 4.77 | CC(C)(COC(=O)[C@H]1CC(c2c(F)cccc2F)=NC1c1ccc(-c2ccc(OC(F)(F)F)cc2)cc1)[N+](=O)[O-] (stereo partly drawn) [Example 32] |
| 5.78 | O=C(OCCCc1ccccc1)[C@H]1CC(c2c(F)cccc2F)=NC1c1ccc(-c2ccc(OC(F)(F)F)cc2)cc1 (stereo partly drawn) [Example 33] |
| 4.67 | COC(=O)[C@@H](C)COC(=O)[C@H]1CC(c2c(F)cccc2F)=NC1c1ccc(-c2ccc(OC(F)(F)F)cc2)cc1 (stereo partly drawn) [Example 39] |
| 4.67 | COC(=O)[C@H](C)COC(=O)[C@H]1CC(c2c(F)cccc2F)=NC1c1ccc(-c2ccc(OC(F)(F)F)cc2)cc1 (stereo partly drawn) [Example 40] |
| 5.21 | O=C(OCCOc1ccccc1)[C@H]1CC(c2c(F)cccc2F)=NC1c1ccc(-c2ccc(OC(F)(F)F)cc2)cc1 (stereo partly drawn) [Example 42] |
| 5.19 | O=C(OCc1cccs1)[C@H]1CC(c2c(F)cccc2F)=NC1c1ccc(-c2ccc(OC(F)(F)F)cc2)cc1 (stereo partly drawn) [Example 43] |
| 5.14 | O=C(OCc1ccsc1)[C@H]1CC(c2c(F)cccc2F)=NC1c1ccc(-c2ccc(OC(F)(F)F)cc2)cc1 (stereo partly drawn) [Example 44] |
| 5.74 | CC(C)[C@H](C)OC(=O)[C@H]1CC(c2c(F)cccc2F)=NC1c1ccc(-c2ccc(OC(F)(F)F)cc2)cc1 (stereo partly drawn) [Example 55] |
| 5.65 | CC(C)[C@@H](C)OC(=O)[C@H]1CC(c2c(F)cccc2F)=NC1c1ccc(-c2ccc(OC(F)(F)F)cc2)cc1 (stereo partly drawn) [Example 56] |
| 3.26 | CNC(=O)[C@H]1CC(c2c(F)cccc2F)=NC1c1ccc(-c2ccc(OC(F)(F)F)cc2)cc1 (stereo partly drawn) [Example 58] |
| 3.49 | CCNC(=O)[C@H]1CC(c2c(F)cccc2F)=NC1c1ccc(-c2ccc(OC(F)(F)F)cc2)cc1 (stereo partly drawn) [Example 59] |
| 3.78 | CCCNC(=O)[C@H]1CC(c2c(F)cccc2F)=NC1c1ccc(-c2ccc(OC(F)(F)F)cc2)cc1 (stereo partly drawn) [Example 60] |
| 4.03 | CCCCNC(=O)[C@H]1CC(c2c(F)cccc2F)=NC1c1ccc(-c2ccc(OC(F)(F)F)cc2)cc1 (stereo partly drawn) [Example 61] |
| 3.61 | CN(C)C(=O)[C@H]1CC(c2c(F)cccc2F)=NC1c1ccc(-c2ccc(OC(F)(F)F)cc2)cc1 (stereo partly drawn) [Example 67] |
| 3.9 | CCN(C)C(=O)[C@H]1CC(c2c(F)cccc2F)=NC1c1ccc(-c2ccc(OC(F)(F)F)cc2)cc1 (stereo partly drawn) [Example 68] |
| 4.23 | CCCN(C)C(=O)[C@H]1CC(c2c(F)cccc2F)=NC1c1ccc(-c2ccc(OC(F)(F)F)cc2)cc1 (stereo partly drawn) [Example 69] |

same assay, conditions: reversed-phase HPLC column (C 18), pH 7.5, pH 7.5 (marked b), 0.01-molar aqueous phosphate buffer/acetonitrile, 43° C.

| SMILES | chromatographic logP |
| --- | --- |
| O=C(OC1CCCC1)[C@H]1CC(c2c(F)cccc2F)=NC1c1ccc(-c2ccc(OC(F)(F)F)cc2)cc1 (stereo partly drawn) [Example 18] | 5.54 |
| O=C(OC1CCCCC1)[C@H]1CC(c2c(F)cccc2F)=NC1c1ccc(-c2ccc(OC(F)(F)F)cc2)cc1 (stereo partly drawn) [Example 19] | 5.91 |

Now from value to compound:

| chromatographic logP | SMILES |
| --- | --- |
| 5.49 | CCCCOC(=O)[C@H]1CC(c2c(F)cccc2F)=NC1c1ccc(-c2ccc(OC(F)(F)F)cc2)cc1 (stereo partly drawn) [Example 14] |
| 6.18 | CCCCCCOC(=O)[C@H]1CC(c2c(F)cccc2F)=NC1c1ccc(-c2ccc(OC(F)(F)F)cc2)cc1 (stereo partly drawn) [Example 15] |
| 5.48 | CCC(C)OC(=O)[C@H]1CC(c2c(F)cccc2F)=NC1c1ccc(-c2ccc(OC(F)(F)F)cc2)cc1 (stereo partly drawn) [Example 16] |
| 5.47 | CC(C)COC(=O)[C@H]1CC(c2c(F)cccc2F)=NC1c1ccc(-c2ccc(OC(F)(F)F)cc2)cc1 (stereo partly drawn) [Example 17] |
| 5.77 | CC(C)[C@H](C)OC(=O)[C@H]1CC(c2c(F)cccc2F)=NC1c1ccc(-c2ccc(OC(F)(F)F)cc2)cc1 (stereo partly drawn) [Example 55] |
| 5.86 | CC(C)[C@@H](C)OC(=O)[C@H]1CC(c2c(F)cccc2F)=NC1c1ccc(-c2ccc(OC(F)(F)F)cc2)cc1 (stereo partly drawn) [Example 56] |

— patent US6995185B2, “Δ1-pyrrolines used as pesticides” (Bayer Cropscience AG, priority 2000, dated 2006)
